Experimental data reported in ChEMBL document CHEMBL1134053, “Structure-activity studies of 5-substituted pyridopyrimidines as adenosine kinase inhibitors” (Bioorg Med Chem Lett, 2001).

What was measured:
Adenosine kinase [1] = biological target: T1, Adenosine kinase (Rattus norvegicus, UniProt Q64640); assay: Inhibitory activity against intact cell adenosine kinase by ADO phosphorylation assay
Adenosine kinase [2] = biological target: T1, Adenosine kinase; assay: Inhibitory activity against cytosolic adenosine kinase by ADO phosphorylation assay
Rattus norvegicus [3] = assay: Tested for analgesic activity in vivo rat carrageenan hyperalgesia assay, administered by intraperitoneal injection to six animals at each dose. p<0.05; type: functional; conditions: ip
Rattus norvegicus [4] = assay: Tested for analgesic activity in vivo rat formalin nociception assay, administered by intraperitoneal injection to six animals at each dose. p<0.05; type: functional; conditions: ip

T1 sequence (Q64640 whole entry): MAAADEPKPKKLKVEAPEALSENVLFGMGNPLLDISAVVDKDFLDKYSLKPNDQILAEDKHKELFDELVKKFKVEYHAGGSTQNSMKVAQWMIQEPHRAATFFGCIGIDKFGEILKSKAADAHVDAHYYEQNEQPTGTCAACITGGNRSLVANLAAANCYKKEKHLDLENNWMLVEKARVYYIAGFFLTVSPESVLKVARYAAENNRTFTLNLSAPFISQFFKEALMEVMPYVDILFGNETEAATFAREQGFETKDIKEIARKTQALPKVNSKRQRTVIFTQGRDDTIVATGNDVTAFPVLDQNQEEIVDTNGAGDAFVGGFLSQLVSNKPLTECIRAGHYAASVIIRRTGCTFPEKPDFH

Row | Compound | IC50 (Adenosine kinase [1]) [µM] | IC50 (Adenosine kinase [2]) [µM] | ED50 (Rattus norvegicus [3]) [µmol/kg] | ED50 (Rattus norvegicus [4]) [µmol/kg]
1 | Cc1cc(-c2ccc(N(C)C)cc2)nc2ncnc(N)c12 | > 1 | 0.047 | – | –
2 | CCC(CC)c1cc(-c2ccc(N3CCOCC3)nc2)nc2ncnc(N)c12 | 0.115 | 0.009 | 30 | –
3 | CN(C)c1ccc(-c2cc(-c3cccc(O)c3)c3c(N)ncnc3n2)cc1 | 0.353 | 0.044 | – | –
4 | CC1CC(C)CC(c2cc(-c3ccc(N4CCOCC4)nc3)nc3ncnc(N)c23)C1 (stereo not drawn) | 0.102 | 0.00023 | 30 | > 30
5 | Nc1ncnc2nc(-c3ccc(N4CCOCC4)nc3)cc(-c3ccco3)c12 | 0.488 | 0.01 | – | –
6 | CN(C)c1ccc(-c2cc(-c3ccccc3)c3c(N)ncnc3n2)cc1 | 0.47 | 0.007 | – | –
7 | Nc1ncnc2nc(-c3ccc(N4CCOCC4)nc3)cc(-c3cccc(Cl)c3Cl)c12 | 0.13 | 0.005 | 5 | –
8 | CN(C)c1ccc(-c2cc(C3CCCCC3)c3c(N)ncnc3n2)cc1 | 0.47 | 0.008 | – | –
9 | CN(C)c1ccc(-c2cc(-c3cccc(Br)c3)c3c(N)ncnc3n2)cc1 | 0.17 | 0.005 | 30 | 0.7
10 | CN(C)c1ccc(-c2cnc3c(N)ncnc3n2)cc1 | – | 0.4 | – | –
11 | Nc1ncnc2nc(-c3ccc(N4CCOCC4)nc3)cc(C3CCOCC3)c12 | 0.8 | 0.017 | > 2 | 30
12 | Nc1ncnc2nc(-c3ccc(N4CCOCC4)nc3)cc(C3CCCC3)c12 | 0.08 | 0.002 | 10 | –
13 | Nc1ncnc2nc(-c3ccc(N4CCOCC4)nc3)cc(-c3cc(Cl)ccc3Cl)c12 | 0.378 | 0.038 | – | –
14 | CCCCc1cc(-c2ccc(N(C)C)cc2)nc2ncnc(N)c12 | 0.55 | 0.011 | – | –
15 | CN(C)c1ccc(-c2ccc3c(N)ncnc3n2)cc1 | > 10 | 0.733 | – | –
16 | Nc1ncnc2nc(-c3ccc(N4CCOCC4)nc3)cc(-c3ccsc3)c12 | 0.55 | 0.013 | – | –
17 | CN(C)c1ccc(-c2cc(-c3cccc(C(F)(F)F)c3)c3c(N)ncnc3n2)cc1 | 0.225 | 0.036 | – | –

Row | Compound | IC50 (Adenosine kinase [1]) [µM] | IC50 (Adenosine kinase [2]) [µM] | ED50 (Rattus norvegicus [3]) [µmol/kg] | ED50 (Rattus norvegicus [4]) [µmol/kg]
18 | Nc1ncnc2nc(-c3ccc(N4CCOCC4)nc3)cc(-c3cccnc3)c12 | 0.315 | 0.062 | > 30 | –
19 | CN(C)c1ccc(-c2cc(-c3cccc(C(N)=O)c3)c3c(N)ncnc3n2)cc1 | 0.85 | 0.077 | – | –
20 | COc1cccc(-c2cc(-c3ccc(N(C)C)cc3)nc3ncnc(N)c23)c1 | 0.4 | 0.085 | – | –
21 | CC(c1ccccc1Br)c1cc(-c2ccc(N3CCOCC3)nc2)nc2ncnc(N)c12 (stereo not drawn) | 0.03 | 0.00025 | 10 | 10
22 | Nc1ncnc2nc(-c3ccc(N4CCOCC4)nc3)cc(-c3ccccc3Br)c12 | 0.675 | 0.003 | 30 | 10
23 | Nc1ncnc2nc(-c3ccc(N4CCOCC4)nc3)cc(-c3cccc(Cl)c3)c12 | 0.096 | 0.009 | 20 | 10
24 | CN(C)c1ccc(-c2cc(-c3cccc(I)c3)c3c(N)ncnc3n2)cc1 | 0.12 | 0.017 | – | –
25 | CN(C)c1ccc(-c2cc(-c3cccc(Cl)c3)c3c(N)ncnc3n2)cc1 | 0.078 | 0.015 | – | –
26 | Nc1ncnc2nc(-c3ccc(N4CCOCC4)nc3)cc(-c3cccc(Br)c3)c12 | 0.05 | 0.002 | 0.6 | 25
27 | Nc1ncnc2nc(-c3ccc(N4CCOCC4)nc3)ccc12 | > 1 | 0.562 | – | –
28 | C=CC(C)(C)c1cc(-c2ccc(N3CCOCC3)nc2)nc2ncnc(N)c12 | 0.304 | 0.021 | – | –
29 | Nc1ncnc2nc(-c3ccc(N4CCOCC4)nc3)cc(C3CCCCC3)c12 | 0.057 | 0.003 | 10 | 20
30 | CN(C)c1ccc(-c2cc(-c3cccc(C#N)c3)c3c(N)ncnc3n2)cc1 | 0.325 | 0.035 | – | –
31 | Nc1ncnc2nc(-c3ccc(N4CCOCC4)nc3)cc(-c3ccc(Br)cc3)c12 | 0.43 | 0.03 | – | 30
32 | CN(C)c1ccc(-c2cc(C3CC3)c3c(N)ncnc3n2)cc1 | 0.825 | 0.055 | – | –
33 | Nc1ncnc2nc(-c3ccc(N4CCOCC4)nc3)cc(Cc3ccccc3Br)c12 | 0.033 | 0.00017 | 3 | 30
